For series [1] the following is noted: cited from earlier work; for sweetness intensity: background art values; for taste: taste in words, background art.
The nature of series [2]: Sweetness intensity relative to sucrose, taste panel. The series is classed as in vivo, Male subjects. The settings on record: based on informal panel testing. The text has this: The sweetness intensity of the esters and amides of the present invention relative to sucrose can be determined according to the following procedure:
Male subjects are chosen at random from a group of about 20 persons who have previously been selected on the basis of proven tasting acuity, i.e., persons who could.easily recognize the four basic tastes (sweet, sour, bitter and salty) and who are adept at quantifying their own physiological response numerically. The subjects are asked to taste and expectorate about 10 ml of a test sample (temperature of about 22°C) having dissolved therein the ester of amide. […] Sweetness intensity of the test sample is recorded by the subject making a mark on the linear scale at a point they consider equal in sweetness among the standard samples; interpolation between standards is encouraged. After completion of the panel, a five point numeric scale is superimposed on the linear scales to obtain numerical data; data is averaged and recorded to.the nearest 0.25 unit..Equivalent sucrose sweetness is determined by referring to graphs of (w/v) sucrose concentration in the standard samples versus a linear numeric scale.
Sweetness intensity is calculated by dividing the concentration (w/v) of perceived sweetness by the concentration (w/v) of the ester or amide required to produce that sweetness. […]

The conditions of series [3]: carbonated beverages; background statement; cited from earlier work.

This is an account of results in patent EP0168881B1, “Oxa-fenchyl esters and amides of alpha-l-aspartyl-d-phenylglycine” (THE PROCTER & GAMBLE COMPANY, priority 1984, dated 1986).

Like-named read-outs stand apart in the source and are kept apart here. Non-standard residues stand in square brackets, D forms with d. Residues, ends and D or L forms follow the SMILES beside them. Phg = N[C@H](C(=O)O)c1ccccc1

On to `C[C@@H](NC(=O)[C@@H](N)CC(=O)O)C(=O)NC1C(C)(C)S(=O)(=O)C1(C)C`, for which the sweetness intensity in series [1] is listed as 1000 times that of sucrose. For `CC12CCC(O1)C(C)(C)C2OC(=O)C(NC(=O)C(N)CC(=O)O)c1ccccc1` (single isomer, unassigned) [Example 2, alpha-L-Aspartyl-D-phenylglycine-alpha-7-oxa-fenchyl ester], the sweetness intensity entry in series [2] is reported as “approximately 1000 X”. Regarding `C[C@@H](NC(=O)[C@@H](N)CC(=O)O)C(=O)NC1C(C)(C)SC1(C)C` [2,2,4,4-tetramethylthietan-3-yl], the sweetness intensity in series [1] is on record as 2000 times that of sucrose. `CC1CCC(C)C1NC(=O)[C@@H](C)NC(=O)[C@@H](N)CC(=O)O` (stereo partly drawn) [2,5-dimethylcyclopentyl]: the sweetness intensity in series [1] is listed as 520 times that of sucrose.

`CC1CCCC(C)C1NC(=O)[C@@H](C)NC(=O)[C@@H](N)CC(=O)O` (stereo partly drawn) [2,6-dimethylcyclohexyl]: the sweetness intensity in series [1] is on record as 600 times that of sucrose. Take `O=C1NS(=O)(=O)c2ccccc21` [Saccharin]: in series [1], the sweetness intensity entry was “about 300 times that of sucrose” and the taste entry was “undesirable lingering bitter aftertaste”. `COC(=O)[C@H](Cc1ccccc1)NC(=O)[C@@H](N)CC(=O)O` [aspartame, a/pha-L-aspartyl-L-phenylalanine lower alkyl esters, in particular the methyl ester known as aspartame] (H-Asp-Phe-OMe): the hydrolytic stability result in series [3] is given as “hydrolytically unstable in most carbonated beverages”. Besides, the sweetness intensity in series [1] is listed as 150-200 times that of sucrose. As to `C[C@@H](NC(=O)[C@@H](N)CC(=O)O)C(=O)NC(C1CC1)C1CC1` [dicyclopropylcarbinyl], the sweetness intensity in series [1] is given as 1200 times that of sucrose. As for `C[C@@H](NC(=O)[C@@H](N)CC(=O)O)C(=O)NC1C2(C)CCC(C2)C1(C)C` (stereo partly drawn) [fenchyl], in series [1], the sweetness intensity is recorded as 320 times that of sucrose.

Turning to `COC(=O)[C@@H](Cc1ccccc1)NC(=O)[C@@H](N)CC(=O)O` [methyl ester of L-aspartyl-D-phenylalanine] (H-Asp-[dF]-OMe), the taste entry in series [1] was “bitter”.

As to `COC(=O)[C@@H](NC(=O)[C@@H](N)CC(=O)O)c1ccccc1` [methyl ester of L-aspartyl-L-phenylglycine] (H-Asp-[Phg]-OMe), in series [1], the sweetness intensity is listed as 100-1000 times that of sucrose and the taste result was “quite sweet”. Turning to `COC(=O)C(NC(=O)[C@@H](N)CC(=O)O)C(=O)OC1C2(C)CCC(C2)C1(C)C` (stereo partly drawn) [methyl], the sweetness intensity in series [1] (listed as R^1a is methyl ester group, R^2a is fenchyl group) is listed as 22,200-33,200 times that of sucrose.
